Read-outs that look alike come from different tables or passages of the source.
How the values were obtained:
[1] = molecular target: JAK1 (Homo sapiens (Human), UniProt P23458); type: biochemical
Protocol: (§1) Assay 1: Biochemical JAK and Off-Target Kinase Assays
(§2) A panel of four LanthaScreen JAK biochemical assays (JAK1, 2, 3 and Tyk2) were carried in a common kinase reaction buffer (50 mM HEPES, pH 7.5, 0.01% Brij-35, 10 mM MgCl2, and 1 mM EGTA). Recombinant GST-tagged JAK enzymes and a GFP-tagged STAT1 peptide substrate were obtained from Life Technologies.
(§3) Serially diluted compounds were pre-incubated with each of the four JAK enzymes and the substrate in white 384-well microplates (Corning) at ambient temperature for 1 h. ATP was subsequently added to initiate the kinase reactions in 10 μL total volume, with 1% DMSO. […] Kinase reactions were allowed to proceed for 1 hour at ambient temperature before a 10 μL preparation of EDTA (10 mM final concentration) and Tb-anti-pSTAT1 (pTyr701) antibody (Life Technologies, 2 nM final concentration) in TR-FRET dilution buffer (Life Technologies) was added. The plates were allowed to incubate at ambient temperature for 1 h before being read on the EnVision reader (Perkin Elmer).
(§4) Results were expressed as pIC50 (negative logarithm of IC50) and subsequently converted to pKi (negative logarithm of dissociation constant, Ki) using the Cheng-Prusoff equation.

[2] = tested on: IL-4 induced STAT6 phosphorylation in THP-1 human monocytic cells
[3] = tested on: IL-13 induced STAT6 phosphorylation in BEAS-2B human lung epithelial cells
[4] = tested on: oxazolone-induced colitis; assay: Mouse model of oxazolone-induced colitis; type: in vivo, BALB/C mice; conditions: PO, 1, 3, and/or 10 mg/kg BID (doses up to 10 mg/kg BID)
Protocol: Assay 7: Mouse Model of Oxazalone-Induced Colitis
Oxazolone-induced colitis is an experimental model that has a histological resemblance to human ulcerative colitis (Heller et al. Immunology, 2002, 17, 629-638). Adult BALB/C mice from Harlan were used in the assay. On day 1, animals were lightly anesthetized with isoflurane and the hairs between the shoulder were carefully removed before oxazolone (4%, 150 μL, 4:1 acetone:olive oil formulation) or vehicle solution was slowly applied for skin sensitization. Seven days after skin sensitization, the mice were fasted overnight, anesthetized with isoflurane inhalation, and a 1 mL syringe equipped with a 3.5-F catheter, filled with oxazolone solution, was inserted carefully about 4 cm into the colon of the mouse. Following insertion, 50 μL of the oxazolone solution (1%, 1:1 ethanol:water formulation) was injected very slowly (over 30 sec using an injection pump) into the colon. The catheter was removed and the mice were held vertically (head down) for 2 min to ensure that the entire oxazolone solution remained inside the colon. Drug treatment (PO, BID or TID) or vehicle was initiated a day prior to the oxazolone intrarectal (IR) challenge. Two-day post oxazolone intrarectal challenge, the Disease Activity Index (DAI) was assessed by treatment-blinded experimenters for each mouse according to the criteria score: stool consistency score (0, normal; 2, loose; 4, diarrhea), gross bleeding score (0, absence; 2, blood tinged; 4, presence), and weight loss score (0, none; 1, 1%-5%; 2, 5%-10^%; 3, 10%-20%; 4, more than 20%); DAI=average of (stool consistency score+gross bleeding score+weight loss score).
Selected compounds of the invention were tested in the assay. Efficacy in the model is evidenced by a decrease in DAI score as compared with the score from vehicle treated animals.

[5] = tested on: splenic NK, B and T cells; assay: Immunosuppression effects in mouse splenic natural killer (NK) cells; type: in vivo, Balb/C mice; conditions: mouse, PO BID three days
Protocol: Assay 8: Immunosuppression Effects in Mouse Splenic Natural Killer (NK) Cells Depletion of mouse splenic cells is an experimental model of immunosuppression (Kudlacz et al., Am. J. of Transplantation, 2004, 4, 51-57). […] Adult male Balb/C mice (12-14 weeks of age) from Harlan were used for the study. […] Spleens were harvested 1 or 2 h post last dose and crushed immediately for cell subtype staining. Prior to fixation, fluorophore-labelled antibodies for CD19 (FITC; B cells), CD3e (PE; pan T cells) and DX5 (APC; NK cells) were incubated with splenocyte samples from each animal to allow for simultaneous, multiple subtype % analysis on the flow cytometer. The number of total spleen cells for each animal was measured by Scepter™ 2.0 Handheld Automated Cell Counter. The absolute number of lymphocyte subtype population (e.g., splenic B, T and NK cells) was calculated from the percentage of each subtype times total spleen cells for each animal. A one way ANOVA, with Dunnett's post hoc test, was used to compare the splenic lymphocytes number of the vehicle and test compound groups. The a level was set at p<0.05. Data were presented as the mean±SEM for each group.

[6] = molecular target: TYK2 (Homo sapiens (Human), UniProt P29597); type: biochemical
Protocol: as §1, §2, §3, §4

[7] = THP-1 cells, IL-4 induced STAT6 phosphorylation
[8] = BEAS-2B cells, IL-13 induced STAT6 phosphorylation

Chain of JAK1 (P23458 whole entry): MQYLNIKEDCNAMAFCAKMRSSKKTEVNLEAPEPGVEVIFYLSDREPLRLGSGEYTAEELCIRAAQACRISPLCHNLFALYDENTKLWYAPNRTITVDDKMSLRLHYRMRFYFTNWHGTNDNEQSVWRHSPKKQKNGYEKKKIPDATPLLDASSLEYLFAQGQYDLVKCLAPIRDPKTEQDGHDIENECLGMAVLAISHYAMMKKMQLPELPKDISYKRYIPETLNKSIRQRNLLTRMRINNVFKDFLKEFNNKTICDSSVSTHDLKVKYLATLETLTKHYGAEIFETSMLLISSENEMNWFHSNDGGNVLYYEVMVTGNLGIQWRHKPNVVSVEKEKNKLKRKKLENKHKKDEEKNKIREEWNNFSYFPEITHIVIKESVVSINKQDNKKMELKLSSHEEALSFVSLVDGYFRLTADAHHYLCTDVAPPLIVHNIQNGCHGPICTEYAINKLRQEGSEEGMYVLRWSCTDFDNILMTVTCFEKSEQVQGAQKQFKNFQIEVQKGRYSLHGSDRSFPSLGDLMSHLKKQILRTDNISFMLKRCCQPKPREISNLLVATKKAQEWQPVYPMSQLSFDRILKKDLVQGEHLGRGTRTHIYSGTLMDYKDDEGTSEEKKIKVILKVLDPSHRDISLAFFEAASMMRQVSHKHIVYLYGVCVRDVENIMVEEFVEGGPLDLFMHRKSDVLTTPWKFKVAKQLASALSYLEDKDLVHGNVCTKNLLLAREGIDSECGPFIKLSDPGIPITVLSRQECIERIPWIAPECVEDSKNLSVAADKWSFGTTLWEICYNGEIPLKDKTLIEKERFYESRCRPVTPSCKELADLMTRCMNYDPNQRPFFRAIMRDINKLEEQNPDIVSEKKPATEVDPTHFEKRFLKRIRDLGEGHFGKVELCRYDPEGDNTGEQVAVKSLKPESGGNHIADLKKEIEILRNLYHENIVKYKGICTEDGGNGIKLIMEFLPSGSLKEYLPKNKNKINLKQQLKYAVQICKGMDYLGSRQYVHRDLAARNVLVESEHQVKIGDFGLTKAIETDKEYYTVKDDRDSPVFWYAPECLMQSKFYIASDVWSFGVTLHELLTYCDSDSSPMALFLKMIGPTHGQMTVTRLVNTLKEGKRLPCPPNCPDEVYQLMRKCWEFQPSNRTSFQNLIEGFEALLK
Chain of TYK2 (P29597 whole entry): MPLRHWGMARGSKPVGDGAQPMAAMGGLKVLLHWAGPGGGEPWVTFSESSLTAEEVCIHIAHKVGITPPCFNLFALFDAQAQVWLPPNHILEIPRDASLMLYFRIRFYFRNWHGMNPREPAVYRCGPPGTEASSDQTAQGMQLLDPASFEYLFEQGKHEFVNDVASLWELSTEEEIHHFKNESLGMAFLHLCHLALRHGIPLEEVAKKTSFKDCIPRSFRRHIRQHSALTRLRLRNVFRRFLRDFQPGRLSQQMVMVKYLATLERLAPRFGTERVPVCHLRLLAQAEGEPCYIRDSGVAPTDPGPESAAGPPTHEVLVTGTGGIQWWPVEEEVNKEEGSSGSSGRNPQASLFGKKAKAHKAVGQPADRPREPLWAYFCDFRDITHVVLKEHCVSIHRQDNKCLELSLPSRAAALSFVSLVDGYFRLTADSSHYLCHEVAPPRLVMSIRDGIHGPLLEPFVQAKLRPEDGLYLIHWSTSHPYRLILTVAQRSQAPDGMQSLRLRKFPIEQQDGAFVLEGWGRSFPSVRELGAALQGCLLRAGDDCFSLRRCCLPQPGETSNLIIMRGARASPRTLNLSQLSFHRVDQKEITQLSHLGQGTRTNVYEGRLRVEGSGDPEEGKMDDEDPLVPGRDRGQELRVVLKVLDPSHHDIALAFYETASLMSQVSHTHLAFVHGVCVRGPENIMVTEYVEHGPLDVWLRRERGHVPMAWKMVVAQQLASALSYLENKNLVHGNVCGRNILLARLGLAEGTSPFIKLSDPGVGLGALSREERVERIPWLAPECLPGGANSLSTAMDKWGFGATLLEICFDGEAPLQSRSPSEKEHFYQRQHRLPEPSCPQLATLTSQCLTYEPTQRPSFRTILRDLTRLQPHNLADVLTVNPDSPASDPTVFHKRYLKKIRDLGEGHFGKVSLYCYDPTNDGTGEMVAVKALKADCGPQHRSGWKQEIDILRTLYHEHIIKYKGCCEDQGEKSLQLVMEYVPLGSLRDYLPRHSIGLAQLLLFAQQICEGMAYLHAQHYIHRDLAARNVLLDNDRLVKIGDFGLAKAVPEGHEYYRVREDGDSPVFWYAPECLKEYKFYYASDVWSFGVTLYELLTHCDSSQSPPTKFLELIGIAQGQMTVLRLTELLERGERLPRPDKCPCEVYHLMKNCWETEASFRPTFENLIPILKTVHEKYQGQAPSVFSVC

Structure (SMILES) | JAK 1 (pKi) [1] | THP-1 IL4 pIC50 [2, 7] | BEAS2B pIC50 [3, 8] | other results
COC(=O)C1(C(=O)N2[C@@H]3CCC[C@H]2C[C@H](Nc2nc(Nc4cc(C)[nH]n4)cc4ncccc24)C3)CC1 [Example 2-21] | B (B represents a pKi value between 9 and 10 (Ki between 1 nM and 0.1 nM)) |  |  | 
CCC(=O)N1[C@@H]2CC[C@H]1C[C@H](Nc1nc(Nc3cc(C)[nH]n3)cc3ncccc13)C2 [Example 2-1] |  | B (B represents a pEC50 value between 6.7 and 7.5 (EC50 between 200 nM and 32 nM)) | B (B represents a pEC50 value between 6.7 and 7.5 (EC50 between 200 nM and 32 nM)) | DAI score as compared with vehicle treated animals [4]: did not exhibit a statistically significant decrease
Cc1cc(Nc2cc3ncccc3c(N[C@@H]3C[C@H]4CCC[C@@H](C3)N4C(=O)C3(C)CCCC3)n2)n[nH]1 [Example 2-23] | B (B represents a pKi value between 9 and 10 (Ki between 1 nM and 0.1 nM)) |  |  | 
Cc1cc(Nc2cc3ncccc3c(N[C@@H]3C[C@H]4CC[C@@H](C3)N4C(=O)C3(C)CCCC3)n2)n[nH]1 [Example 2-10] | B (B represents a pKi value between 9 and 10 (Ki between 1 nM and 0.1 nM)) |  |  | THP-1 IL4 pIC50 [2]: B (key: A represents a pEC50 value ≥7.5 (EC50≤32 nM); B represents a pEC50 value between 6.7 and 7.5 (EC50 between 200 nM and 32 nM); C represents a pEC50 value <6.7 (EC50>200 nM))
Cc1cc(Nc2cc3ncccc3c(N[C@@H]3C[C@H]4CC[C@@H](C3)N4C(=O)c3cccnc3)n2)n[nH]1 [Example 2-14] | B (B represents a pKi value between 9 and 10 (Ki between 1 nM and 0.1 nM)) |  |  | THP-1 IL4 pIC50 [2]: C (key: A represents a pEC50 value ≥7.5 (EC50≤32 nM); B represents a pEC50 value between 6.7 and 7.5 (EC50 between 200 nM and 32 nM); C represents a pEC50 value <6.7 (EC50>200 nM))
Cc1cc(Nc2cc3ncccc3c(N[C@@H]3C[C@H]4CC[C@@H](C3)N4CC3(C#N)CC3)n2)n[nH]1 [Example 1-24] |  | B (B represents a pEC50 value between 6.7 and 7.5 (EC50 between 200 nM and 32 nM)) | A (A represents a pEC50 value ≥7.5 (EC50≤32 nM)) | 
CCS(=O)(=O)N1[C@@H]2CC[C@H]1C[C@H](Nc1nc(Nc3cc(C)[nH]n3)cc3nc(CN4CCOCC4)ccc13)C2 [Example 5-16] |  | B (B represents a pEC50 value between 6.7 and 7.5 (EC50 between 200 nM and 32 nM)) | B (B represents a pEC50 value between 6.7 and 7.5 (EC50 between 200 nM and 32 nM)) | 
CCC1(S(=O)(=O)N2[C@@H]3CCC[C@H]2C[C@H](Nc2nc(Nc4cc(C)[nH]n4)cc4ncccc24)C3)CC1 [Example 4-20] |  |  |  | BEAS2B pIC50 [3]: A (key: A represents a pEC50 value ≥7.5 (EC50≤32 nM); B represents a pEC50 value between 6.7 and 7.5 (EC50 between 200 nM and 32 nM); C represents a pEC50 value <6.7 (EC50>200 nM))
C[C@@H]1CCN(C(=O)CC#N)C[C@@H]1N(C)c1ncnc2[nH]ccc12 [tofacitinib, reference compound] |  |  |  | B and T cell populations (spleen) [5]: No treatment effect
Cc1cc(Nc2cc3ncccc3c(N[C@@H]3C[C@H]4CC[C@@H](C3)N4Cc3cccc(O)c3)n2)n[nH]1 [Example 1-19] |  | B (B represents a pEC50 value between 6.7 and 7.5 (EC50 between 200 nM and 32 nM)) |  | Tyk 2 (pKi) [6]: C (C represents a pKi value between 7 and 9 (Ki between 100 nM and 1 nM))

— patent US11780852B2, “Methods for treating Crohn's disease using 3-((1R,3s,5S)-3-((7-((5-methyl-1H-pyrazol-3-yl)amino)-1,6-naphthyridin-5-yl)amino)-8-azabicyclo[3.2.1]octan-8-yl)propanenitrile” (priority 2015, dated 2023)
